Results on ten compounds are retold here after patent US20260216255A1, “STRAIN OF COLLINSELLA, AND PHARMACEUTICAL COMPOSITION THEREOF” (MOON (GUANGZHOU) BIOTECH CO., LTD., priority 2022, published 2026).

The subject of this experiment is strain MNH 18574. Put plainly: Antibiotic sensitivity test by disk diffusion method. Conditions: for Diameter of inhibition zone: strain MNH 18574. Type of experiment: cell-based, Collinsella sp. Here is the method:
An antibiotic sensitivity test was carried out on the strain MNH 18574 by a disk diffusion method.
(In general: Agar diffusion results depend on both activity and mobility in agar.)

`CC1(C)S[C@@H]2[C@H](NC(=O)[C@H](N)c3ccccc3)C(=O)N2[C@H]1C(=O)O` [Ampicillin (AMP), Ampicillin]: the “sensitivity or resistance of strain MNH 18574 to the antibiotic” value (“sensitivity or resistance” for short) is on record as “resistant” and the “Diameter of inhibition zone” value turned out to be 0 mm.

Turning to `CO/N=C(\C(=O)N[C@@H]1C(=O)N2C(C(=O)O)=C(CSc3nc(=O)c(=O)[nH]n3C)CS[C@H]12)c1csc(N)n1` [Ceftriaxone (CTR), Ceftriaxone], the “sensitivity or resistance” value is “resistant” and the “Diameter of inhibition zone” value amounted to 0 mm. With `O=C(N[C@H](CO)[C@H](O)c1ccc([N+](=O)[O-])cc1)C(Cl)Cl` [Chloramphenicol (CLM), Chloramphenicol], the “sensitivity or resistance” value is reported as “sensitive” and the “Diameter of inhibition zone” value was found to be 27.64 mm. The corresponding values for `O=C(O)c1cn(C2CC2)c2cc(N3CCNCC3)c(F)cc2c1=O` [Ciprofloxacin (CFX), Ciprofloxacin] are “resistant” and 0 mm. The corresponding values for `CC[C@H]1OC(=O)[C@H](C)[C@@H](O[C@H]2C[C@@](C)(OC)[C@@H](O)[C@H](C)O2)[C@H](C)[C@@H](O[C@@H]2O[C@H](C)C[C@H](N(C)C)[C@H]2O)[C@](C)(O)C[C@@H](C)C(=O)[C@H](C)[C@@H](O)[C@]1(C)O` [Erythromycin (ERM), Erythromycin] are “resistant” and 0 mm. `CCC[C@@H]1C[C@@H](C(=O)N[C@@H]([C@H]2O[C@H](SC)[C@H](O)[C@@H](O)[C@H]2O)[C@@H](C)O)N(C)C1` [Lincomycin (LIN), Lincomycin]: the “sensitivity or resistance” value is on record as “resistant” and the “Diameter of inhibition zone” value turned out to be 0 mm.

For the compound `CN(C)[C@@H]1C(O)=C(C(N)=O)C(=O)[C@@]2(O)C(O)=C3C(=O)c4c(O)cccc4[C@@](C)(O)[C@H]3C[C@@H]12` [Tetracycline (TET), Tetracycline], the “Diameter of inhibition zone” value worked out at 0 mm. Gentamicin [Gentamicin (GEN)]: the “sensitivity or resistance” value was “resistant” and the “Diameter of inhibition zone” value came out at 0 mm.

Regarding Penicillin [Penicillin (PEN)], the “sensitivity or resistance” value is on record as “sensitive” and the “Diameter of inhibition zone” value amounted to 24.51 mm. For “Trimethoprim-sulfamethoxazole [Trimethoprim-sulfamethoxazole (T/S)]”, the “sensitivity or resistance” value is “resistant” and the “Diameter of inhibition zone” value is given as 0 mm.
